Patent US10456344B2, “Hair composition” (Conopco, Inc., priority 2014, dated 2019)

Columns and labels:
[1] = test system: antioxidant response element (ARE); assay: HaCaT cell with antioxidant response element (ARE) reporter gene (luciferase) assay; type: cell-based, human; settings: n = 3
Procedure: HaCaT (immortal human keratinocyte) cells (P42) were stored in liquid nitrogen and revived in DMEM containing 10% FBS. The cells were sub-cultured and cryostocks made in 10% DMEM containing 10% DMSO from the first two passages.
To generate a stable cell line, the optimal antibiotic concentration was determined for selecting stable cell colonies. A kill curve was performed using untransfected HaCaT cells to evaluate their hygromycin B sensitivity (as the ARE-luciferase construct to be used for transfection contains the gene for hygromycin B resistance). HaCaT cells were plated in a 24-well tissue culture plate at a cell density of ˜80,000 cells per well. 24 hours later the cells were treated with different concentrations of Hygromycin B (ranging from 100 μg/ml to 800 μg/ml for seven days).
pGL4.37 (luc2P/ARE/Hygro) vector (Promega Cat. No. #E3641) transformed into DH5α competent cells (Invitrogen Cat. No. #18263-012). These were then plated on to an LB-ampicillin plate and kept overnight at 37° C. in an incubator.
The next day, single colonies were picked and inoculated in 5 ml LB Amp medium and kept at 37° C. for 8 hours in a shaker incubator at 250 rpm. The starter culture was then inoculated at 1:100 in 100 ml LB Amp medium. 24 hours later, the culture was harvested and transfection grade plasmid prepared using Sigma's Plasmid Midiprep Kit (Cat. No. #PLD35-1KT).
HaCaT cells were plated in 6-well tissue culture plate at a cell density of 500,000 cells per well. After 24 hours, the cells were transfected with 2 μg of endotoxin-free transfection grade pGL4.37 [luc2P/ARE/Hygro] vector in duplicates using Lipofectamine 2000 Reagent (Invitrogen) as per manufacturer's protocol. After transfection, HaCaT cells were allowed to grow and to express the protein for Hygromycin B resistance under non-selective conditions for 24 hours. One day post transfection cells were treated with Hygromycin B at a concentration of 400 μg/ml to initiate the antibiotic selection pressure. For the selection of stably expressing cells, HaCaT cells were grown in 10% DMEM medium containing 400 μg/ml of Hygromycin B. Under Hygromycin B selective conditions, resistant cells will outgrow non-resistant cells thereby resulting in a polyclonal population of stably-expressing cells. Stably expressing HaCaT cells were fed every 2-3 days with 400 μg/ml Hygromycin B selection medium. After 3 weeks of selection with 400 μg/ml of Hygromycin B medium stable pools were observed on the plate. Individual clones were picked using cloning rings and transferred to 96-well plate and expanded up to T25 cm^2 flask. Out of a dozen individual clones, clone 7 was chosen and validated for expression of luciferase upon treatment with D,L-sulforaphane.
HaCaT_ARE_luc2P_Clone_7 cells were seeded in a 96 well plate at a cell density of ˜7.5×10^3 cells per well. 24 hours later D, L-sulforaphane was added at increasing concentrations (0 μM, 0.2 μM, 0.4 μM, 0.6 μM, 0.8 μM and 1 μM). A standard curve for the luciferase assay was generated for relative light units (RLU) for HaCaT_ARE_Clone_7 cells treated with increasing concentrations of D,L-sulforaphane.
HaCaT_ARE_luc2P_Clone_7 cells were seeded in 96 well plates at a cell density of ˜7,500 cells per well. All test compounds were added to the cells at a final dilution of 1:1000 and the luciferase assay performed.
The following combinations of test compounds were evaluated in the assay: • (a) granilin, an NRF2 agonist, and 22(R)-hydroxycholesterol, a liver X receptor α/β agonist; • (b) granilin and 3-[3-[[[2-chloro-3-(trifluoromethyl)phenyl]methyl](2,2-diphenylethyl) amino]propoxy]benzeneacetic acid hydrochloride (also known as GW 3965 hydrochloride and available from Tocris), a liver X receptor α/β agonist; and • (c) granilin and stigmasterol, a liver X receptor α/β agonist. Results

[2] = test system: hemeoxygenase-1 (HO-1) protein; assay: HO-1 ELISA of lysates of treated HaCaT cells; type: cell-based, human; settings: 24 hours, n = 3
Procedure: HaCaT (immortal human keratinocyte) cells (P42) were stored in liquid nitrogen and revived in DMEM containing 10% FBS. The cells were sub-cultured and cryostocks made in 10% DMEM containing 10% DMSO from the first two passages. Cells were routinely plated out in 6-well tissue culture dishes, at a seeding density of ˜5000 cells/cm2 in 2 ml complete medium/well for 24 hours, and incubated at 37° C. in 5% CO2. Test solutions were prepared in ethanol or DMSO and added directly to the cells and treated for 24 hours. The cells were then pelleted. All cell pellets were lysed on ice for 30 minutes in 1 ml cell lysis buffer per 2.5×10^6 cells. The lysis buffer contained 1% NP-40, 0.1% sodium deoxycholate, 0.1% SDS, 6 mM sodium chloride and 0.05 M Tris at pH 7.6. […] Sigma P8340) was added prior to use at a level of 10 μl per ml of lysis buffer. The clarified cell lysate was frozen at −80° C. until needed. The total protein concentration of each cell lysate was measured using the Pierce BCA protein assay kit. […] The reagent solution was prepared according to the kit instructions from 50 parts reagent A and 1 part reagent B. 200 μl of the final reagent was added to each well of the microtitre plate. The plate was mixed, covered and incubated at 37° C. for 30 minutes and absorbance read at 562 nm. A protein standard curve was constructed and used to determine the protein concentration of each cell lysate. HO-1 ELISA (R & D Systems) The hemeoxygenase-1 (HO-1) protein concentration of each cell lysate was assayed using the DuoSet Human Total HO-1/HMOX1 assay (R&D Systems DYC3776) according to the manufacturer's instructions. […] The HO-1 capture antibody was diluted to a concentration of 8 μg/ml in PBS and was bound to the microtitre plate (Greiner Bio-One) overnight at room temperature. The unbound antibody was then removed by washing 3 times with wash buffer (0.05% Tween 20 in PBS) on an automatic plate washer. […] The plate was washed as before. 100 μl of 1/200 diluted streptavidin horseradish peroxidase (HRP) was added to each well and incubated in the dark for 20 minutes at room temperature. The plate was washed as before and then 100 μl of substrate solution (R&D Systems DY999, 1:1 mixture of Colour Reagent A and Colour Reagent B) was added to each well and incubated, in the dark at room temperature, until colour developed (approx 20 minutes). 50 μl of stop solution (2M H2SO4) was applied to each well and the plate read on a microplate reader (Dynex MRX) at 450 nm with wavelength correction set at 540 nm. A standard curve was plotted of mean OD versus HO-1 concentration and the line of best fit calculated by regression analysis. The unknown concentration of HO-1 protein in all the samples was calculated from this. The results were normalised using the total protein data and expressed as ng HO-1 per μg protein. The test compounds were sulforaphane, an NRF2 agonist, and 22(R)-hydroxycholesterol, a liver X receptor α/β agonist, and mixtures thereof.

[3] = test system: NADP(H): quinone oxidoreductase (NQO-1); assay: NQO-1 gene expression assay of hair follicle cells (real time PCR); type: cell-based, human; settings: 24 hour treatment, n = 3
Description: Temporal or occipital human scalp skin was obtained from subjects undergoing face-lift or hair transplant surgery with informed consent and ethics approval. Anagen VI hair follicles were isolated and maintained according to the method described in Philpott et al (J. Cell Sci 97, 463-471 (1990)). Dhurat et al (Int J Trichology, 2(2), 96-100 (July-December 2010)) describe that anagen is conventionally divided into six stages, Anagen I-V (proanagen), when the hair shaft grows within the hair follicle, and Anagen VI ([…]), when the tip of the hair shaft emerges from the hair follicle. Hair follicles were stabilised in RNAlater (for PCR). Five individual Anagen VI hair follicles were used for each culture condition/patient. […] RNA was extracted using the Qiagen RNeasy Microkit (maximum 5 mg tissue per extraction). […] cDNA was diluted 1:10 in RNase free water. […] Plates were run on an Applied Biosystems StepOnePlusTM Real Time PCR machine. Fast cycling conditions were used, utilising a 2 minute polymerase activation step at 95° C., followed by 45 cycles of denaturing at 95° C. for 1 second, and annealing/extension at 60° C. for 20 seconds. […] Data was analysed by the ΔΔCt methodology The test compounds were sulforaphane, an NRF2 agonist, and 22(R)-hydroxycholesterol, a liver X receptor α/β agonist, and mixtures thereof.

HO-1 = settings: hair follicles treated with sulforaphane; cited from earlier work

CC[C@H](/C=C/[C@@H](C)[C@H]1CC[C@H]2[C@@H]3CC=C4C[C@@H](O)CC[C@]4(C)[C@H]3CC[C@]12C)C(C)C [stigmasterol]
RLU ([1]; 1 μM single compound): 0.78 ± 0.02 RLU | RLU ([1]; 10 μM single compound): 0.69 ± 0.00 RLU

C[S+]([O-])CCCCN=C=S (stereo not shown) [sulforaphane]
HO-1 protein (ng HO-1 per μg protein) ([2]; 0.01 μM single compound): 1.602 ± 0.248 ng HO-1 per μg protein | HO-1 protein (ng HO-1 per μg protein) ([2]; 0.05 μM single compound): 1.600 ± 0.385 ng HO-1 per μg protein | HO-1 protein (ng HO-1 per μg protein) ([2]; 1 μM single compound): 1.910 ± 0.418 ng HO-1 per μg protein | NQO-1 Fold change compared to 18S ([3]; 10 μM): 5.44 ± 0.50 Fold change | HO-1 in the mesenchymal connective tissue sheath (HO-1): up-regulation of HO-1

Cl.O=C(O)Cc1cccc(OCCCN(Cc2cccc(C(F)(F)F)c2Cl)CC(c2ccccc2)c2ccccc2)c1 [GW 3965 hydrochloride, 3-[3-[[[2-chloro-3-(trifluoromethyl)phenyl]methyl](2,2-diphenylethyl)amino]propoxy]benzeneacetic acid hydrochloride]
RLU ([1]; 1 μM single compound): 1.02 ± 0.02 RLU | RLU ([1]; 10 μM single compound): 0.63 ± 0.01 RLU

C=C1C(=O)O[C@@H]2C[C@@]3(C)[C@@H](O)C[C@@H](O)C(=C)[C@@H]3C[C@H]12 [granilin]
RLU ([1]; 1 μM single compound): 3.77 ± 0.31 RLU | RLU ([1]; 5 μM single compound): 15.04 ± 0.18 RLU

CC(C)CC[C@@H](O)[C@@H](C)[C@H]1CC[C@H]2[C@@H]3CC=C4C[C@@H](O)CC[C@]4(C)[C@H]3CC[C@]12C [22(R)-hydroxycholesterol]
HO-1 protein (ng HO-1 per μg protein) ([2]; 1 μM single compound): 1.486 ± 0.387 ng HO-1 per μg protein | HO-1 protein (ng HO-1 per μg protein) ([2]; 10 μM single compound): 3.174 ± 0.119 ng HO-1 per μg protein | NQO-1 Fold change compared to 18S ([3]; 5 μM): 1.04 ± 0.05 Fold change | RLU ([1]; 1 μM single compound): 1.17 ± 0.03 RLU | RLU ([1]; 10 μM single compound): 0.67 ± 0.01 RLU
